This note sets out measurements from ChEMBL document CHEMBL3046362, “Synthesis, antioxidant evaluation, and quantitative structureactivity relationship studies of chalcones” (Med Chem Res, 2011).

Common to all, as to format: functional
Assay [1] can be described thus: Antioxidant activity assessed as superoxide radical scavenging activity at 50 ug/ml after 10 min by NBT reduction assay.
A short description of assay [2]: Antioxidant activity assessed as hydrogen peroxide radical scavenging activity at 50 ug/ml after 10 min by spectrophotometry.
Assay [3] deals with Radical scavenging activity. Put plainly: Antioxidant activity assessed as DPPH radical scavenging activity at 50 ug/ml after 20 min. (In general: The DPPH test is a chemical assay of radical scavenging.)
A short description of assay [4]: Antioxidant activity assessed as reducing power of potassium ferricyanide at 50 ug/ml after 20 min by spectrophotometry. On the set-up: scale not given: the % may be the effect or the level left.
The test system of assay [5] is Radical scavenging activity. Put plainly: Antioxidant activity assessed as DPPH radical scavenging activity at 100 to 250 ug/ml by EPR spectroscopy.

Activity calls are given as the source filed them. The rule behind the calls is not given here.

As to `COc1ccccc1/C=C/C(=O)c1cccc([N+](=O)[O-])c1`, the Activity in assay [1] was 5.39%; in assay [2], 24.3%; in assay [3], 6.93%; in assay [4] it was 22.4%.
Consider `COc1cc(/C=C/C(=O)c2ccccc2)cc(OC)c1OC`, for which the Activity in assay [1] turned out to be 28.9%; in assay [2], 22.7%; in assay [3], 15.6%; in assay [4], 40.6%.
For the molecule `CSc1ccc(/C=C/C(=O)c2ccc(Cl)cc2Cl)cc1`, the Activity in assay [1] amounted to 30.9%; in assay [2], 17.4%; in assay [3] it was 4.07%; in assay [4] it was 10.1%.
The matching figures for `COc1ccc(C(=O)/C=C/c2ccc(SC)cc2)cc1`: 17.8%, 29.5%, 2.64% and 24.3%.
For the molecule `COc1ccc(/C=C/C(=O)c2ccc(C)cc2)cc1`, the Activity amounted to 15.4% in assay [1], 4.54% in assay [2], 1.3% in assay [3] and 23.1% in assay [4].
Take `CN(C)c1ccc(/C=C/C(=O)c2ccccc2)cc1`: the Activity was determined as 13.8% in assay [1], 12.1% in assay [2], 8.08% in assay [3] and 9.52% in assay [4].
Consider `CSc1ccc(/C=C/C(=O)c2ccccc2O)cc1`, for which the Activity in assay [1] came to 50.2%; in assay [2] it was 33.3%; in assay [3], 15.4%; in assay [4], 46.7%.
Consider `COc1ccc(/C=C/C(=O)c2cccc([N+](=O)[O-])c2)c(OC)c1`, for which the Activity in assay [1] came out at 23.1%; in assay [2], 5.91%; in assay [3] it was 7.9%; in assay [4], 26.5%.
For `CSc1ccc(/C=C/C(=O)c2cccc(O)c2)cc1` the same measures were 53.3%, 28.7%, 21.2% and 51.6%.
In the case of `COc1ccc(/C=C/C(=O)c2ccccc2)cc1`, the Activity worked out at 21.3% in assay [1], 12.3% in assay [2], 5.34% in assay [3] and 21.2% in assay [4].
`COc1ccc(/C=C/C(=O)c2cccc(O)c2)cc1`: the Activity in assay [1] was found to be 62%; in assay [2], 42.8%; in assay [3] it was 35.7%; in assay [4], 37.5%. Besides, the outcome in assay [5] was Active.
As for `CN(C)c1ccc(/C=C/C(=O)c2ccc(Cl)cc2Cl)cc1`, the Activity in assay [1] was determined as 10.9%; in assay [2], 32.6%; in assay [3] it was 12.9%; in assay [4] it was 22%.
Take `O=C1O[C@H]([C@@H](O)CO)C(O)=C1O`: the Activity in assay [1] was 82.9%; in assay [2], 78.3%; in assay [3], 28%; in assay [4], 22.6%.
As to `CSc1ccc(/C=C/C(=O)c2ccccc2)cc1`, the Activity came to 27.4% in assay [1], 4.26% in assay [2], 10.2% in assay [3] and 19.8% in assay [4].
Regarding `CSc1ccc(/C=C/C(=O)c2ccc(Br)cc2)cc1`, the Activity came to 18% in assay [1], 49.7% in assay [2], 18% in assay [3] and 18.8% in assay [4].
Turning to `CSc1ccc(/C=C/C(=O)c2cccc([N+](=O)[O-])c2)cc1`, the Activity is 39.7% in assay [1], 46.4% in assay [2], 15.3% in assay [3] and 27.2% in assay [4].
Take `CSc1ccc(/C=C/C(=O)c2ccc([N+](=O)[O-])cc2)cc1`: the Activity in assay [1] was determined as 17.4%; in assay [2], 4.61%; in assay [3], 15.9%; in assay [4], 3.17%.
The matching figures for `COc1ccccc1/C=C/C(=O)c1ccccc1`: 18.6%, 4.54%, 0.98% and 21.8%.
`Cc1cc(C(C)(C)C)c(O)c(C(C)(C)C)c1`: the Activity stood at 79.1% in assay [1], 42.6% in assay [2], 26.4% in assay [3] and 56.1% in assay [4].
For `COc1ccccc1/C=C/C(=O)c1ccc([N+](=O)[O-])cc1` the same measures were 34.5%, 61.3%, 7% and 32.8%.
The matching figures for `CSc1ccc(/C=C/C(=O)c2ccc(O)cc2)cc1`: 52.6%, 23.8%, 28.9% and 46%.
With `O=C(/C=C/c1ccccc1)c1ccccc1`, the Activity was 32.6% in assay [1], 25.4% in assay [2], 18.6% in assay [3] and 42.4% in assay [4].
For `COc1ccc(/C=C/C(=O)c2ccc(Cl)cc2Cl)cc1OC` the same measures were 32.6%, 23.8%, 15.7% and 33.8%.
Turning to `COc1ccc(/C=C/C(=O)c2cccc([N+](=O)[O-])c2)cc1OC`, the Activity in assay [1] worked out at 53.4%; in assay [2] it was 35.9%; in assay [3], 15.4%; in assay [4], 43.5%.
The matching figures for `CN(C)c1ccc(/C=C/C(=O)c2cccc([N+](=O)[O-])c2)cc1`: 39%, 17.4%, 18.6% and 28.6%.
Regarding `CSc1ccc(/C=C/C(=O)c2ccc(Cl)cc2)cc1`, the Activity amounted to 41.4% in assay [1], 43.5% in assay [2], 23.2% in assay [3] and 30.9% in assay [4].
Regarding `CSc1ccc(/C=C/C(=O)c2ccc(C)cc2)cc1`, the Activity in assay [1] worked out at 23.1%; in assay [2], 31.7%; in assay [3] it was 3.16%; in assay [4] it was 23.8%.
